Columns and labels:
Abutilon theophrasti [1] = experiment: Pre-emergence herbicidal action, ABUTH; assay type: in vivo; details: for Herbicidal efficacy against ABUTH: Table K; for herbicidal activity ABUTH: scored visually after 3 weeks vs untreated controls
Summary of the method: (§1)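 Percent herbicidal activity rated by eye 3 weeks after pre-emergence soil-surface application, compared with untreated pots. Seeds sat under sandy loam; sprays carried 0.2% wetting agent.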

Alopecurus myosuroides [2] = experiment: Pre-emergence herbicidal action, ALOMY; assay type: in vivo; details: for herbicidal activity ALOMY: dosage 320 g/ha, scored visually after 3 weeks vs untreated controls
Summary of the method: as §1

Amaranthus retroflexus [3] = experiment: Pre-emergence herbicidal action, AMARE; assay type: in vivo; details: dosage 320 g/ha, scored visually after 3 weeks vs untreated controls
Summary of the method: as §1

Avena fatua [4] = experiment: Pre-emergence herbicidal action, AVEFA; assay type: in vivo; details: for herbicidal activity AVEFA: dosage 320 g/ha, scored visually after 3 weeks vs untreated controls
Summary of the method: as §1

Cyperus serotinus = experiment: Pre-emergence herbicidal action, CYPES; assay type: in vivo; details: for herbicidal activity CYPES: dosage 320 g/ha, scored visually after 3 weeks vs untreated controls
Summary of the method: as §1

Matricaria inodora = experiment: Pre-emergence herbicidal action, MATIN; assay type: in vivo; details: for Herbicidal efficacy against MATIN: Table K; for herbicidal activity MATIN: scored visually after 3 weeks vs untreated controls
Summary of the method: as §1

Polygonum convolvulus = experiment: Pre-emergence herbicidal action, POLCO; assay type: in vivo; details: Table K
From the text: 1. Pre-Emergence Herbicidal Action Against Harmful Plants Seeds of monocotyledonous and dicotyledonous weed plants and crop plants are laid out in sandy loam soil in wood-fiber pots and covered with soil. The compounds of the invention, formulated in the form of wettable powders (WP) or as emulsion concentrates (EC), are then applied to the surface of the covering soil in the form of an aqueous suspension or emulsion at a water application rate equating to […], with addition of 0.2% wetting agent. After the treatment, the pots are placed in a greenhouse and kept under good growth conditions for the trial plants. The damage to the test plants is scored visually after a test period of 3 weeks by comparison with untreated controls (herbicidal activity in percent (%): 100% activity=the plants have died, 0% activity=like control plants).
For comparison, the herbicidal activity of numerous compounds according to the invention was tested with the structurally closest compounds known from the documents WO 2011/035874, WO 2012/028579 and WO 2012/126932, by the pre- and post-emergence method.

Setaria viridis [5] = experiment: Pre-emergence herbicidal action, SETVI; assay type: in vivo; details: for herbicidal activity SETVI: dosage 320 g/ha, scored visually after 3 weeks vs untreated controls
Summary of the method: as §1

Stellaria media [6] = experiment: Pre-emergence herbicidal action, STEME; assay type: in vivo; details: dosage 320 g/ha, scored visually after 3 weeks vs untreated controls
Summary of the method: as §1

Viola tricolor [7] = experiment: Pre-emergence herbicidal action, VIOTR; assay type: in vivo; details: for Herbicidal efficacy against VIOTR: Table K; for herbicidal activity VIOTR: scored visually after 3 weeks vs untreated controls
Summary of the method: as §1

Abutilon theophrasti [8] = experiment: Post-emergence herbicidal action, ABUTH; assay type: in vivo; details: 80 g/ha, Table D
Summary of the method: (§2)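 Greenhouse-grown plants were sprayed at the one-leaf stage, 2–3 weeks after sowing. Damage was scored visually after about 3 weeks against untreated controls, as % action (100% = dead, 0% = like control).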

Alopecurus myosuroides [9] = experiment: Post-emergence herbicidal action, ALOMY; assay type: in vivo; details: for herbicidal activity ALOMY: 80 g/ha, Table C
Summary of the method: as §2

Amaranthus retroflexus [10] = experiment: Post-emergence herbicidal action, AMARE; assay type: in vivo; details: 80 g/ha, Table D
Summary of the method: as §2

Avena fatua [11] = experiment: Post-emergence herbicidal action, AVEFA; assay type: in vivo; details: for herbicidal activity AVEFA: 80 g/ha, Table C
Summary of the method: as §2

Pharbitis purpureum = experiment: Post-emergence herbicidal action, PHBPU; assay type: in vivo; details: 80 g/ha, Table D
Summary of the method: as §2

Setaria viridis [12] = experiment: Post-emergence herbicidal action, SETVI; assay type: in vivo; details: for herbicidal activity SETVI: 80 g/ha, Table C
Summary of the method: as §2

Stellaria media [13] = experiment: Post-emergence herbicidal action, STEME; assay type: in vivo; details: for Herbicidal activity STEME: 80 g/ha, Table D
Summary of the method: as §2

Viola tricolor [14] = experiment: Post-emergence herbicidal action, VIOTR; assay type: in vivo; details: for herbicidal activity VIOTR: 80 g/ha, Table D
Summary of the method: as §2

ECHCG [15] = experiment: Post-emergence herbicidal action, ECHCG; assay type: in vivo; details: 80 g/ha, Table C
Summary of the method: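 Weed and crop plants grown in sandy loam in the greenhouse, treated at the one-leaf stage 2–3 weeks after sowing. Damage scored visually after about 3 weeks vs untreated controls (0% = control, 100% = dead).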

ECHCG [16] = experiment: Pre-emergence herbicidal action, ECHCG; assay type: in vivo, Echinochloa crus-galli

CSc1c(C(F)F)ccc(C(=O)Nc2nnnn2C)c1Cl [Example 1-49]
Herbicidal efficacy against ABUTH (Abutilon theophrasti [1]; dosage 20 g/ha): 70
Herbicidal efficacy against ABUTH (Abutilon theophrasti [1]; dosage 80 g/ha): 100
herbicidal activity ABUTH (Abutilon theophrasti [1]; dosage 320 g/ha): 100%
Herbicidal efficacy against ALOMY (Alopecurus myosuroides [2]; 20 g/ha): 40
Herbicidal efficacy against ALOMY (Alopecurus myosuroides [2]; 80 g/ha): 90
herbicidal activity ALOMY (Alopecurus myosuroides [2]): 100%
herbicidal activity AMARE (Amaranthus retroflexus [3]): 100%
Herbicidal efficacy against AVEFA (Avena fatua [4]; 20 g/ha): 50
Herbicidal efficacy against AVEFA (Avena fatua [4]; 80 g/ha): 80
herbicidal activity AVEFA (Avena fatua [4]): 100%
Herbicidal efficacy against CYPES (Cyperus serotinus; 20 g/ha): 50
Herbicidal efficacy against CYPES (Cyperus serotinus; 80 g/ha): 70
herbicidal activity CYPES (Cyperus serotinus): 90%
Herbicidal efficacy against MATIN (Matricaria inodora; dosage 20 g/ha): 80
herbicidal activity MATIN (Matricaria inodora; dosage 320 g/ha): 100%
Herbicidal efficacy against POLCO (Polygonum convolvulus; dosage 80 g/ha): 50
Herbicidal efficacy against SETVI (Setaria viridis [5]; 20 g/ha): 90
herbicidal activity SETVI (Setaria viridis [5]): 100%
Herbicidal activity STEME (Stellaria media [6]): 90%
Herbicidal efficacy against VIOTR (Viola tricolor [7]; dosage 20 g/ha): 100
Herbicidal efficacy against VIOTR (Viola tricolor [7]; dosage 80 g/ha): 100
herbicidal activity VIOTR (Viola tricolor [7]; dosage 320 g/ha): 100%
herbicidal activity ABUTH (Abutilon theophrasti [8]): 90%
Herbicidal efficacy against ALOMY (Alopecurus myosuroides [9]; 5 g/ha): 60
herbicidal activity ALOMY (Alopecurus myosuroides [9]): 90%
herbicidal activity AMARE (Amaranthus retroflexus [10]): 80%
Herbicidal efficacy against AVEFA (Avena fatua [11]; 5 g/ha): 50
herbicidal activity AVEFA (Avena fatua [11]): 100%
Herbicidal activity PHBPU (Pharbitis purpureum): 90%
Herbicidal efficacy against SETVI (Setaria viridis [12]; 5 g/ha): 80
herbicidal activity SETVI (Setaria viridis [12]): 90%
Herbicidal efficacy against STEME (Stellaria media [13]; 5 g/ha): 70
Herbicidal activity STEME (Stellaria media [13]): 100%
Herbicidal efficacy against VIOTR (Viola tricolor [14]; 5 g/ha): 100
herbicidal activity VIOTR (Viola tricolor [14]): 100%
Herbicidal activity ECHCG (ECHCG [15]): 80%
Herbicidal efficacy against ECHCG (ECHCG [16]; 20 g/ha): 50
Herbicidal efficacy against ECHCG (ECHCG [16]; 80 g/ha): 100

Cn1nnnc1NC(=O)c1ccc(C(F)F)c([S+](C)[O-])c1Cl (stereo not drawn) [Example 1-50]
Herbicidal efficacy against ABUTH (Abutilon theophrasti [1]; dosage 20 g/ha): 100
Herbicidal efficacy against ABUTH (Abutilon theophrasti [1]; dosage 80 g/ha): 100
Herbicidal efficacy against ABUTH (Abutilon theophrasti [1]; dosage 320 g/ha): 100
herbicidal activity ABUTH (Abutilon theophrasti [1]; dosage 320 g/ha): 100%
Herbicidal efficacy against ALOMY (Alopecurus myosuroides [2]; 20 g/ha): 90
Herbicidal efficacy against ALOMY (Alopecurus myosuroides [2]; 80 g/ha): 100
Herbicidal efficacy against ALOMY (Alopecurus myosuroides [2]; 320 g/ha): 100
herbicidal activity ALOMY (Alopecurus myosuroides [2]): 100%
herbicidal activity AMARE (Amaranthus retroflexus [3]): 100%
Herbicidal efficacy against AVEFA (Avena fatua [4]; 80 g/ha): 90
Herbicidal efficacy against AVEFA (Avena fatua [4]; 320 g/ha): 100
herbicidal activity AVEFA (Avena fatua [4]): 100%
Herbicidal efficacy against CYPES (Cyperus serotinus; 20 g/ha): 70
Herbicidal efficacy against CYPES (Cyperus serotinus; 80 g/ha): 100
Herbicidal efficacy against CYPES (Cyperus serotinus; 320 g/ha): 100
herbicidal activity CYPES (Cyperus serotinus): 100%
Herbicidal efficacy against MATIN (Matricaria inodora; dosage 20 g/ha): 90
Herbicidal efficacy against MATIN (Matricaria inodora; dosage 80 g/ha): 100
Herbicidal efficacy against MATIN (Matricaria inodora; dosage 320 g/ha): 100
herbicidal activity MATIN (Matricaria inodora; dosage 320 g/ha): 100%
Herbicidal efficacy against POLCO (Polygonum convolvulus; dosage 80 g/ha): 80
Herbicidal efficacy against POLCO (Polygonum convolvulus; dosage 320 g/ha): 90
Herbicidal efficacy against SETVI (Setaria viridis [5]; 20 g/ha): 100
Herbicidal efficacy against SETVI (Setaria viridis [5]; 80 g/ha): 100
Herbicidal efficacy against SETVI (Setaria viridis [5]; 320 g/ha): 100
herbicidal activity SETVI (Setaria viridis [5]): 100%
Herbicidal activity STEME (Stellaria media [6]): 90%
Herbicidal efficacy against VIOTR (Viola tricolor [7]; dosage 20 g/ha): 100
Herbicidal efficacy against VIOTR (Viola tricolor [7]; dosage 80 g/ha): 100
Herbicidal efficacy against VIOTR (Viola tricolor [7]; dosage 320 g/ha): 100
herbicidal activity VIOTR (Viola tricolor [7]; dosage 320 g/ha): 100%
herbicidal activity ABUTH (Abutilon theophrasti [8]): 100%
herbicidal activity ALOMY (Alopecurus myosuroides [9]): 100%
herbicidal activity AMARE (Amaranthus retroflexus [10]): 100%
herbicidal activity AVEFA (Avena fatua [11]): 100%
Herbicidal activity PHBPU (Pharbitis purpureum): 100%
herbicidal activity SETVI (Setaria viridis [12]): 100%
Herbicidal activity STEME (Stellaria media [13]): 100%
herbicidal activity VIOTR (Viola tricolor [14]): 100%
Herbicidal activity ECHCG (ECHCG [15]): 100%
Herbicidal efficacy against ECHCG (ECHCG [16]; 20 g/ha): 90
Herbicidal efficacy against ECHCG (ECHCG [16]; 80 g/ha): 100
Herbicidal efficacy against ECHCG (ECHCG [16]; 320 g/ha): 100

From US20230183193A1, “4-DIFLUOROMETHYL BENZOYL AMIDES WITH HERBICIDAL ACTION” (BAYER CROPSCIENCE AKTIENGESELLSCHAFT, priority 2017, published 2023)
